Results taken from publication PMC11276905 (International Journal of Molecular Sciences, 2024).
Entries after “also recorded” stand apart in the source; their conditions may differ. Like-named read-outs stand apart in the source and are kept apart here. Where a SMILES comes first, the peptide text is derived from it. The star is where a group is joined. MeOSuc = COC(=O)CCC(=O)*; CH2Cl = ClC*

How the values were obtained:
HNE in U937 cells = target: T1, HNE in U937 cells (Homo sapiens, UniProt P08246); test: Intracellular HNE inhibition in cultured U937 cells (residual activity in lysates); type: cell-based; conditions: for time course of HNE inhibition in U937 cells (in words): 0-26 h culture; for effect on HNE activity in the U937 cell culture model (in words): 0-26 h, increasing concentrations, alvelestat and sivelestat up to more than 1000-fold above Ki
T1 construct: the myeloid cell line U937, which can differentiate into neutrophils [25] and expresses HNE; host or cells: U937 (histiocytic lymphoma), undifferentiated
T1 sequence (P08246 30-247 limits assumed): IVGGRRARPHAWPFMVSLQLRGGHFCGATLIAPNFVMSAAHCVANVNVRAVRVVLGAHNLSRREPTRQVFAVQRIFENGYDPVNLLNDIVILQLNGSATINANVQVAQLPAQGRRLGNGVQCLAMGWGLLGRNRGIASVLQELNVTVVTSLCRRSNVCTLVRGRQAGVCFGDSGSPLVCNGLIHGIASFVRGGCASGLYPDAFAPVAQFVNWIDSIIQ
Protocol: (§3) The enzymatic activity of HNE was measured using a fluorescence-based assay in 96-well black bottom plates (Corning®, 003916, New York, NY, USA). HNE (0.5 nM) or cell lysates (20 µL, ~100 PMN/µL, ~1000 U937/µL, ~5000 HL-60/µL or ~1000 HMC-1/µL) were diluted in assay buffer (200 mM TRIS HCl, 500 mM NaCl, 0.05% Tween-20, pH 8.0). […] AMC (7-Amino-4-methylcoumarin) standard curves were generated by measuring serial dilutions of the fluorophore AMC (1 µM–0 µM) in assay buffer on the same plate and used to calculate nM AMC generation from fluorescence measurements.
(§4) U937 cells were plated in sterile 96-U-well plates (92697, TPP, Trasadingen, Switzerland) at a density of 100 cells/µL in a cell culture medium (180 µL per well). Increasing concentrations of inhibitors and solvent controls were diluted in a culture medium and added (20 µL/well) to the 96-well plate 26 h, 6 h, 3 h, and 0 h before harvesting and lysing the cells (see below). Plates were kept at 37 °C, 5% CO2, and 95% humidity throughout the incubation period. […] Similarly, freshly isolated PMN were plated at 50–100 cells/µL in PBS (1 g/L glucose) and incubated for 1 h with inhibitors or controls.
(§5) For cell lysis, cells were pelleted in the microtiter plates by centrifugation (400× g, 10 min, 4 °C) and washed three times in PBS (4 °C). Washed cells were then lysed by adding lysis buffer (PBS, 1 M NaCl, 0.1% Tween-20, pH 7.4) and freeze–thawing on dry ice. Finally, lysates were centrifuged (2100× g) to remove cell debris. Enzymatic activity of HNE was determined as described above, and residual activity present after incubation with inhibitors expressed as % of matched solvent controls.

[1] = target: T2, isolated HNE (human neutrophil elastase) (Homo sapiens, UniProt P08246); test: Inhibition of isolated HNE, steady-state kinetics (MeOSuc-AAPV-AMC); type: biochemical
T2 construct: immediately processed to its active form in the trans-Golgi before being targeted to azurophil granules; purchased Merck (Darmstadt, Germany) 324681
T2 sequence (P08246 30-267): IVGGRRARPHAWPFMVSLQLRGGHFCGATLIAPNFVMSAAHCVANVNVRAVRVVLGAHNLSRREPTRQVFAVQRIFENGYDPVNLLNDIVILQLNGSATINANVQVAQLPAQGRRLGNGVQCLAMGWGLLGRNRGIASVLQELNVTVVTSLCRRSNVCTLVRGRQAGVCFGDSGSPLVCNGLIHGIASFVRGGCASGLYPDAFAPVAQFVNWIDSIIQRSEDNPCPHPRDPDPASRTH
Protocol: (§1) To determine the inhibition constants of reversible inhibitors with isolated HNE and HNE in cell lysates, HNE (0.5 nM) and U937 lysates (1000 cells/µL) were incubated with serial dilutions of the compounds in assay buffer at 37 °C for ≥ 1 h. Subsequently, residual HNE activity was measured as described above and compared to the activity of uninhibited HNE. […] The inhibition curves generated were fitted to Morrisons’s equation to obtain the dissociation equilibrium constant Ki with pro-Fit (Quantum Soft, Uetikon am See, Switzerland) using a Levenberg–Marquardt algorithm.

HNE in U937 lysates = target: T3, HNE in U937 lysates (Homo sapiens, UniProt P08246); test: Inhibition of HNE activity in U937 lysates; type: biochemical
T3 construct: the myeloid cell line U937, which can differentiate into neutrophils [25] and expresses HNE; host or cells: U937 (histiocytic lymphoma), undifferentiated
T3 sequence (P08246 30-247 limits assumed): T1 sequence (P08246 30-247 limits assumed)
Protocol: (§2) For the quantification and characterization of HNE-like activity in cell lysates, the density of the sample cell suspension was first quantified using a CASY-1 cell counter.
as §1

[2] = target: T4, elastase-like activity (HNE) in PMN lysates (Homo sapiens, UniProt P08246); test: Inhibition of elastase-like activity in PMN lysates; type: biochemical; conditions: 1 h, 37 °C
T4 construct: from tissue; host or cells: neutrophil granulocytes from peripheral venous blood of healthy human donors
T4 sequence (P08246 30-247 limits assumed): T1 sequence (P08246 30-247 limits assumed)
Source text: Residual erythrocytes were eliminated by hypotonic lysis.
as §2

[3] = tested on: elastase-like activity in HL-60 lysates; test: Inhibition of elastase-like activity in HL-60 lysates; type: biochemical, human; conditions: 1 h, 37 °C
Source text: as §2

isolated HNE = target: T5, isolated HNE (Homo sapiens, UniProt P08246); test: Formation and dissociation of the HNE/inhibitor complex (pre-steady-state kinetics); type: biochemical; conditions: for kon: pre-steady-state kinetics, HNE 0.6 nM, 37 °C, mean ± SD; for koff: koff = Ki × kon, irreversible inhibitors ≈ zero
T5 construct: immediately processed to its active form in the trans-Golgi before being targeted to azurophil granules; purchased Merck (Darmstadt, Germany) 324681
T5 sequence (P08246 30-267): T2 sequence (P08246 30-267)
Protocol: To determine the association rates (kon) of the inhibitors, the enzymatic activity of HNE (0.6 nM) was recorded continuously in an SFM25 fluorometer (Biotek Kontron, Neufahrn, Germany) by following the cleavage of MeOSuc-AAPV-AMC (10 µM) at 37 °C. When a constant rate was established (i.e., after 1–5 min), an inhibitor was added, and the reaction followed for up to 60 min. The pseudo-first-order rate constant kobs was obtained by fitting the observed presteady-state progress curve to the integrated equation of Morrison with pro-Fit. Apparent second-order rate constants were subsequently calculated as k2/Ki = kobs/It by linear regression from several independent experiments using a range of concentrations. For reversible inhibitors, the dissociation rate koff was subsequentially calculated as koff = Ki × kon; for irreversible inhibitors, koff is ≈ zero. Finally, the halftime of the HNE/inhibitor complex formation and dissociation were calculated as t1/2,on = 0.693/(kass × It + koff) and t1/2,off = 0.693/koff, respectively.

[4] = Inhibitor stability in serum-free cell culture medium; type: physicochemical; conditions: 26 h, 37 °C
Protocol: Inhibitors were prepared as above and incubated for 26 h in RPMI at 37 °C. Residual inhibitor activity was compared to the activity of freshly prepared compounds by measuring the inhibition of HNE.

U937 cells [5] = test: LDH release from U937 cells; type: cell-based, human; conditions: after 26 h
Protocol: Cytotoxicity of the inhibitors was determined by analyzing the release of lactate dehydrogenase (LDH) into the cell culture medium using the LDH cytotoxicity kit II (PromoKine, Heidelberg, Germany) or the more sensitive Pierce LDH cytotoxicity assay kit (Thermo Scientific, Darmstadt, Germany) following the manufacturer’s instructions.

U937 cells [6] = test: Proliferation of U937 cells; type: cell-based, human; conditions: concentrations ≥300 µM
Protocol: U937 cells were plated in sterile 96-U-well plates (92697, TPP, Trasadingen, Switzerland) at a density of 100 cells/µL in a cell culture medium (180 µL per well). Increasing concentrations of inhibitors and solvent controls were diluted in a culture medium and added (20 µL/well) to the 96-well plate 26 h, 6 h, 3 h, and 0 h before harvesting and lysing the cells (see below). Plates were kept at 37 °C, 5% CO2, and 95% humidity throughout the incubation period.

[7] = target: T2, isolated HNE (human neutrophil elastase); test: Inhibition of isolated HNE, steady-state kinetics (MeOSuc-AAPV-AMC); type: biochemical; conditions: read-out: IC50(60min), isolated HNE; irreversible inhibitors, incubated 1 h, logistic fit, mean ± SD
HNE in mature PMN = target: T6, HNE in mature PMN (Homo sapiens, UniProt P08246); test: Intracellular HNE inhibition in freshly isolated mature PMN
T6 sequence (P08246 30-247 limits assumed): T1 sequence (P08246 30-247 limits assumed)
Protocol: Peripheral venous blood was collected from six healthy donors after informed consent (votum 018-09 of the local ethics committee), and differential blood counts were performed. Neutrophil granulocytes were isolated using the MACSxpress neutrophil isolation kit (Miltenyi Biotec, Bergisch Gladbach, Germany) following the manufacturer’s instructions. Residual erythrocytes were eliminated by hypotonic lysis. Neutrophils were resuspended in PBS with glucose (1 g/L) at a density of 50–100 cells/µL. The purity of the final cell population was analyzed by staining a smear using Pappenheim’s method and counting ≥200 cells using a light microscope.
as §3, §4, §5

surface of neutrophils = tested on: surface of neutrophils; parameters: method as in earlier work; conditions: ref 41 (Braun and Schnebli); read-out: surface binding affinity Kd; cited from earlier work
eglin C [8] = target: T7, eglin C (Hirudo medicinalis, UniProt P01051); test: steady-state inhibition, Morrison fit, U937 lysate
T7 chain: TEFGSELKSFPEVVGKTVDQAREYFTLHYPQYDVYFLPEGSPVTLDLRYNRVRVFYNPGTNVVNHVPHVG

eglin C [9] = target: T7, eglin C; test: steady-state inhibition, Morrison fit, isolated HNE
[10] = read-out: IC50, HNE in PMN, 1 h incubation

COC(=O)CCC(=O)N[C@@H](C)C(=O)N[C@@H](C)C(=O)N1CCC[C@H]1C(=O)N[C@H](C(=O)CCl)C(C)C [MeOSuc-AAPV-CMK] (MeOSuc-AAPV-CH2Cl)
time course of HNE inhibition in U937 cells (in words) (HNE in U937 cells): inhibit HNE in U937 cells increasingly over the 26 h observation period

Cl.NCCc1ccc(S(=O)(=O)F)cc1 [Pefabloc SC]
inhibition of activity of isolated HNE ([1]; 1 mM, 1 h, 37 °C, HNE 0.5 nM): 98 ± 0.6% | inhibition of isolated HNE ([1]; at ~10^−3 M): nearly complete inhibition | inhibition of elastase-like activity in U937 lysate (HNE in U937 lysates; 1 mM, 1 h, 37 °C): 91 ± 0.6% | IC50 (HNE in U937 lysates; read-out: IC50(60min), U937 lysate, irreversible inhibitors, incubated 1 h, logistic fit, mean ± SD): 130 µM | inhibition of elastase-like activity in PMN lysate ([2]; 1 mM): 97 ± 0.6% | inhibition of elastase-like activity in HL-60 lysate ([3]; 1 mM): 95 ± 1% | time course of HNE inhibition in U937 cells (in words) (HNE in U937 cells): increases during the first 6 h; also recorded: lose effectiveness over time | IC50 (HNE in U937 cells; 0 h incubation, read-out: IC50, HNE in U937 cells at 0 h): ~100 µM | inhibition of HNE in intact U937 cells (HNE in U937 cells; at ~10^−3 M): nearly complete inhibition | IC50 (HNE in U937 cells; intact U937 cells, time not specified, read-out: IC50, HNE in intact U937 cells): ~100 µM | IC50 (HNE in U937 cells; read-out: IC50, HNE in U937 cells at 6 h, 6 h incubation): ~10 µM | kon (isolated HNE): 1.0 ± 0.1 M⁻¹ s⁻¹ | decrease of inhibitory activity after incubation in medium ([4]; serum-free medium (RPMI)): approximately 50% | LDH release from U937 cells (U937 cells [5]; 1000 and 300 µM): 12 ± 2% | reduction of U937 cell proliferation (U937 cells [6]): 50 ± 3% | IC50 [7]: 130 µM | IC50 (HNE in mature PMN; [10]): ~100 µM

COc1cc(C(C)C)c2c(c1)S(=O)(=O)N(COc1cc(=O)n3cccc(OCCN4CCCCC4)c3n1)C2=O [SSR 69071]
Ki (HNE in U937 lysates; U937 lysate 1000 cells/µL, incubated 1 h 37 °C, Morrison fit, mean ± SD): 0.00033 µM | time course of HNE inhibition in U937 cells (in words) (HNE in U937 cells): most effective immediately after addition and then lose effect over time; also recorded: lose effectiveness over time | koff (isolated HNE): 9.2e-05 s⁻¹ | kon (isolated HNE): 2.8 ± 0.06 × 10^5 M^−1 s^−1 | stability in cell culture medium (in words) ([4]; serum-free medium): appeared stable | LDH release from U937 cells (U937 cells [5]; 12.5 µM): 12 ± 2%

CC(C)(C)C(=O)Oc1ccc(S(=O)(=O)Nc2ccccc2C(=O)NCC(=O)O)cc1 [Sivelestat, sivelestat]
inhibition at 4 µM ([1]; 4 µM, 1 h, 37 °C, HNE 0.5 nM): 99 ± 0.3% | inhibition at 4 µM (HNE in U937 lysates; 4 µM, 1 h, 37 °C, read-out: inhibition of elastase-like activity in U937 lysate): 96 ± 0.3% | inhibition at 4 µM ([2]; 4 µM, read-out: inhibition of elastase-like activity in PMN lysate): 97 ± 0.6% | inhibition of elastase-like activity in HL-60 lysate ([3]; 4 µM): 2 ± 1.2% | effect on HNE activity in the U937 cell culture model (in words) (HNE in U937 cells): no detectable effect; also recorded: no measurable effect; also recorded: do not cause detectable intracellular inhibition | half-life of the complex with HNE (in words) (isolated HNE): seconds to a few minutes | effect on HNE in mature PMN (in words) (HNE in mature PMN; 1 h incubation): negligible effect | potency in PMN compared with U937 cells (in words) (HNE in mature PMN; PMN 1 h vs U937 0-3 h): somewhat more effective in PMN than U937 cells

B1: Eglin C: small leech-derived protein (70 amino acids, 8091 Da), proteinase inhibitor (protein, UniProt P01051 1-70, looked up)
Eglin C: T7 chain
fold less effective on HNE in cell lysates than on isolated HNE (HNE in U937 lysates; U937 lysate vs isolated HNE): 10 fold | fold less potent in PMN lysates (HNE in U937 lysates; printed 'PMN lysates'): ~ 10 fold | effect on HNE activity in the U937 cell culture model (in words) (HNE in U937 cells): do not inhibit HNE | effect on HNE in U937 cells (HNE in U937 cells; 10 µM, after 26 h): little effect | koff (isolated HNE): 3.8e-05 s⁻¹ | kon (isolated HNE): 2.9 ± 0.09 × 10^6 M^−1 s^−1 | Kd (surface of neutrophils): 0.2 µM | effect on HNE in mature PMN (in words) (HNE in mature PMN; 1 h incubation): inhibits intracellular HNE but only in mature neutrophils | IC50 (HNE in mature PMN; [10]): ~0.02 µM | IC50 (HNE in mature PMN; read-out: IC50 for the inhibition of intracellular HNE, mature neutrophils): 0.02 µM

B2: neutrophil elastase (protein)
chain: T2 sequence (P08246 30-267)
Ki (eglin C [8]): 0.00019 µM | Ki (eglin C [9]): 0.013 nM
